{
  "source": "paper PMC6459484",
  "about": "“Synthetic surfactin analogues have improved anti-PEDV properties” (PLoS ONE, 2019)",
  "system": "PEDV",
  "test": "Time of addition assay (viral N protein by western blot, viral RNA by qRT-PCR)",
  "assay_type": "cell-based, Porcine epidemic diarrhea virus",
  "settings": "Vero cells, 1000 PFU PEDV, harvested 12 hpi; SLP5 50 μg/ml, surfactin 20 μg/ml, DEPE 5 μg/ml; 3 independent experiments",
  "protocol": "Time of addition assay was performed according to the procedures described, with modifications. Confluent Vero cells in 12-well plates were infected with 1000 PFU of PEDV and incubated for 1 hr at 4 °C to synchronize infection. The inoculum was removed and 1 mL of 37 °C DMEM was added to each well, cells were then placed at 37 °C in a humidified incubator. At the indicated time points, SLP5, surfactin, or dielaidoyl-phosphatidylethanolamine (DEPE, AvantiPolarLipids, Alabaster, AL) was added dropwise to cells or virus to a final concentration of 50 μg/ml, 20 μg/ml, or 5 μg/ml and incubated a further 12 hours at 37 °C. Viral nucleic acid and protein levels in the cells were measured by qRT-PCR and western-blot respectively. The data shown is representative of 3 independent experiments.\nTotal RNA was extracted from cells using TRIzol Reagent (Invitrogen) according to the manufacturer’s instructions. cDNA was generated by reverse transcription using HiScript TM QRT SuperMix for qPCR (Vazyme) according to the manufacturer’s instructions. PEDV nucleic acid levels were assessed by measuring the viral nucleoprotein (N) using qRT-PCR with the TaKaRa SYBR Green qPCR Kit (TaKaRa). Primer sequences were as follows: PEDV-N-F (sense), 5’-[…]-3’; PEDV-N-R (antisense), 5’-[…]-3’; C-sabaeus-GAPDH-F, 5’-[…]-3’; C-sabaeus-GAPDH-R, 5’-[…]-3’. Gene level was calculated using the comparative Ct method and normalized to the endogenous levels of GAPDH.\nBoiled cell lysates were subjected to SDS-PAGE then transferred to PVDF membrane (Roche, Basel, Switzerland) using a semi-dry transfer apparatus (GE, Little Chalfont, Buckinghamshire, UK). Membranes were blocked in 5% non-fat milk in TBS containing 0.01% Tween-20 (TBST) then incubated overnight at 4 °C with anti-PEDV N-protein monoclonal antibody (Median Diagnostics, South Korea) diluted in TBST with 1% BSA. Membranes were washed 30 min in TBST followed by incubation for 1 h at RT with 1:5000 HRP goat anti-mouse IgG antibody (ABGENT, San Diego, CA, USA) then thrice washed for 15 min in TBST. Membranes were incubated with ECL reagent (Thermo, Waltham, MA, USA) and imaged using a ChemiDoc™ system (Bio-Rad, Hercules, CA, USA).\nSince SLP5 was the most promising surfactin analogue, we chose it for further study. Time of addition assays were performed to determine whether the SLP5 exerts its anti-PEDV effect at the same stage during infection as surfactin. Since surfactin acts directly on virions, the experiment was designed to examine events early in the infection process. Fig 6A summarizes the experimental plan and the eight treatments tested. Briefly, SLP5, surfactin, or DEPE was added to virus alone, cells alone, or to cells and virus together prior to infection, during virus adsorption, during virus invasion (1 h post infection at 37 °C), or during replication (1–12 hpi). Samples were harvested 12 hours after infection, and analyzed to measure cellular levels of viral protein (Fig 6B and 6C) and viral RNA (Fig 6D). […] Other antiviral mechanisms of SLP5 and surfactin cannot be ruled out since PEDV replication is inhibited to different degrees in some of the other treatment groups.\nFig 6 Time-of-addition experiments. (A) Vero cells were treated with SLP5, surfactin, or DEPE at different time points before, during, and after infection. […] (B) The PEDV nucleoprotein was detected by Western-blot, and (C) quantitated by band intensity relative to the internal control, GAPDH. (D) The PEDV genome was detected by qRT-PCR. […]",
  "data": [
    {"smiles": "CCCCCCCC/C=C/CCCCCCCC(=O)OC[C@H](COP(=O)(O)OCCN)OC(=O)CCCCCCC/C=C/CCCCCCCC", "note": "[DEPE, dielaidoyl-phosphatidylethanolamine]", "values": [
      {"measurement": "PEDV replication (nucleic acid and protein levels), reagent present throughout the experiment (treatment group 2) or at any stage", "result": "did not affect PEDV replication at any stage"}
    ]}
  ]
}
